According to article PMC11213865, “Mechanisms contributing to inhibition of retinal ganglion cell death by cell permeable peptain-1 under glaucomatous stress” (Cell Death Discovery, 2024):
No end group written: not given here.

Assays:
[1] = test system: Human retinal endothelial cells; assay: Cell penetration and retention, western blot with anti-P1 monoclonal antibody; format: in vitro ADME; conditions: 16 h; for intracellular concentration (level of P1 in cells, densitometry relative to β-actin): cell uptake, 100 µM peptide, serum-free DMEM/F12 (low glucose), cell lysate, western blot with anti-P1 monoclonal antibody, mean ± SEM, n = 3
Description: Fig. 1 Conjugation with CPP increases the cell permeability of P1. A Human retinal endothelial cells were treated with vehicle (CONT), P1 or CPP-P1 (100 µM). Following incubation for 16 h, the levels of P1 in cells were detected by western blotting using an anti-P1 monoclonal antibody. Densitometric analysis was performed relative to β-actin levels (n = 3). Data represented as mean ± SEM, One-way ANOVA followed by Tukey’s multiple comparisons test, ***p < 0.001, ns-not significant. The entire western blot image is shown in Supplementary Figure 1. B Human retinal explants comparing the difference in neuroprotective efficacy of P1 with and without the CPP. C Representative images, RBPMS, Scale bar = 100 µm.
Human retinal endothelial cells were incubated with vehicle, P1, or CPP-P1 (100 µM) in serum-free DMEM/F12 (low glucose) medium for 16 h. Cells were treated with 1X RIPA buffer containing protease inhibitor cocktail and cell lysates were prepared. Western blot was performed using an anti-P1 monoclonal antibody with β-actin as the loading control (n = 3).

RGC = conditions: accumulates within RGC somas in a time-dependent manner; cited from earlier work

Row | Sequence | cell permeability of CPP-P1 relative to P1 ([1]; 100 µM, human retinal endothelial cells, western blot) | intracellular concentration (level of P1 in cells, densitometry relative to β-actin) [1] | RGC permeability (RGC)
1 | VPTLKDRFSVNLDVKHFSPEELKVK [CPP-P1] | approximately seven | 1.41 ± 0.17 | –
2 | DRFSVNLDVKHFSPEELKVK [P1] | – | 0.23 ± 0.01 | RGC-permeable
